Ten compounds from ChEMBL document CHEMBL1139782, “Dual acting antioxidant A1 adenosine receptor agonists” (Bioorg Med Chem Lett, 2007) can be followed below.

The target of one assay is T1, Adenosine receptor A3 (Homo sapiens, UniProt P0DMS8).
T1 sequence (P0DMS8 whole entry): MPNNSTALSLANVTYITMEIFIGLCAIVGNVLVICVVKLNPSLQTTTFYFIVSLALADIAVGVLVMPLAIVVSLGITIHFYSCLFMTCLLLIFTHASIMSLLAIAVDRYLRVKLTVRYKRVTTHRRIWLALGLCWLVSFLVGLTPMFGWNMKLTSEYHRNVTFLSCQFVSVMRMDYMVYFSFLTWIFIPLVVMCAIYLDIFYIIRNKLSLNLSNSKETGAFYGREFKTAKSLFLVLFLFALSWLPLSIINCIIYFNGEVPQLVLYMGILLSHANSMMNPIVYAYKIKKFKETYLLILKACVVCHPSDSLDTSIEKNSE
Kind of assay: Binding affinity to adenosine A3 receptor.

The next assay deals with Adenosine receptor A2a (Homo sapiens, UniProt P29274). Kind of assay: Binding affinity to adenosine A2A receptor.
Another assay addresses T2, Adenosine receptor A1 (Homo sapiens, UniProt P30542).
T2 sequence (P30542 whole entry): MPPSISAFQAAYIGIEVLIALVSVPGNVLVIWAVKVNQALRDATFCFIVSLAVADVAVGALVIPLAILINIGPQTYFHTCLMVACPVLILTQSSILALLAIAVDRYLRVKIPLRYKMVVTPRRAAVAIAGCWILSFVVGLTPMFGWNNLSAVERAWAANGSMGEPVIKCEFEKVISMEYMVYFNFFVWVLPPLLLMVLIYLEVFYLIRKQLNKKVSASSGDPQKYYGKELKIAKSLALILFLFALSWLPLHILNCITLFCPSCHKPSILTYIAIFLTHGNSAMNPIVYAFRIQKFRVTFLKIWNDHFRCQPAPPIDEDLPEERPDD
Kind of assay: Binding affinity to adenosine A1 receptor.

Assay [1] concerns the target T3, Adenosine receptor A1 (Rattus norvegicus) (UniProt P25099).
T3 sequence (whole entry): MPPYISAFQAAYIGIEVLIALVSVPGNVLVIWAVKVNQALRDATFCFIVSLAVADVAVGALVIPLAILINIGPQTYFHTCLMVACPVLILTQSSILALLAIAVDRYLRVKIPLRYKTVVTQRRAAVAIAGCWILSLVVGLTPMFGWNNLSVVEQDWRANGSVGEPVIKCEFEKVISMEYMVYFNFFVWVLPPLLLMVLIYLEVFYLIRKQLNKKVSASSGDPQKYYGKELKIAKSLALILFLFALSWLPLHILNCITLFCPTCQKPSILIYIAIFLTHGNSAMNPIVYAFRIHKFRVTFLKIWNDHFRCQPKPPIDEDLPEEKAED
Description: Agonist activity at adenosine A1 receptor in embryonic rat H9C2 cell model of ischemia assessed as reduction of cell death at 10 nM. The assay is classed as functional, cell-based. More on the design: scale not given: the % may be the effect or the level left.

A further assay concerns the target T4, Adenosine receptor A2b (Homo sapiens, UniProt P29275).
T4 sequence (P29275 whole entry): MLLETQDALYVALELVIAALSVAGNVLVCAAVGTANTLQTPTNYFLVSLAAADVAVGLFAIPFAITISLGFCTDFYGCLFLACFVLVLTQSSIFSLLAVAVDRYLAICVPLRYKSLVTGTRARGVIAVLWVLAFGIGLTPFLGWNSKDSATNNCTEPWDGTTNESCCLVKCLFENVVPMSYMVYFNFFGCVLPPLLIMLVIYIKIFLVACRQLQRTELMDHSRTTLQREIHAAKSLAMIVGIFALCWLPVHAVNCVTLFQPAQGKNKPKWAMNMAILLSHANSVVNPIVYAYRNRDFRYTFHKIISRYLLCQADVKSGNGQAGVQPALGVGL
Kind of assay: Binding affinity to adenosine A2B receptor.

In assay [2] the target is T3, Adenosine receptor A1 (Rattus norvegicus). Description: Reversal of agonistic activity at adenosine A1 receptor in embryonic rat H9C2 cell model of ischemia assessed as reduction of cardioprotective effect in presence of DPCPX A1 antagonist. The assay is classed as functional, tissue-based. The settings on record: Heart.
In assay [3] the target is Adenosine receptors; A1 & A3 (Homo sapiens) (UniProt P30542+P0DMS8). Description: Selectivity for adenosine A1 receptor over adenosine A3 receptor.

Activity calls are given as the source filed them. The calls are words filed in the database; no cut-off is given here.

Adenosine receptor A2a, sequence (P29274 whole entry): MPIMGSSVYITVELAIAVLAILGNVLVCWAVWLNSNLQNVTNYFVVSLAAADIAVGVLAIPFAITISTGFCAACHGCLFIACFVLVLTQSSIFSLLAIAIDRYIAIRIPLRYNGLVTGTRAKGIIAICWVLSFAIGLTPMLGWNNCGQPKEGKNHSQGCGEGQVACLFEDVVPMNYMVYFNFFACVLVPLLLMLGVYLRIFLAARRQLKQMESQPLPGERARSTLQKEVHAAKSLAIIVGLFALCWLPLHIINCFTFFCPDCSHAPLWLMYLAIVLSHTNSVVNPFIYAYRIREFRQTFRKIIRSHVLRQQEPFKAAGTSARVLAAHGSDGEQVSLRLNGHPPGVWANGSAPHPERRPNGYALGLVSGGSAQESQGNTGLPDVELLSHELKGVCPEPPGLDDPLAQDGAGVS

Take `CC1(C)CC(CNc2ncnc3c2ncn3[C@@H]2O[C@H](CO)[C@@H](O)[C@H]2O)C(C)(C)N1[O]` (stereo not given in full): the Ki (in general, a measure of affinity in units of concentration, obtained from inhibition or displacement) at Adenosine receptor A3 is 21200 nM; on Adenosine receptor A2a it was greater than 10000 nM; on Adenosine receptor A1, 50 nM; on Adenosine receptor A2b, greater than 10000 nM. Further, in assay [1], the Activity was determined as 84.8%. For the same compound, in assay [2], the outcome was Active.

Turning to `CC(C)(C)c1cc(C(=O)NCCCCCCNc2ncnc3c2ncn3[C@@H]2O[C@H](CO)[C@@H](O)[C@H]2O)cc(C(C)(C)C)c1O`, the Ki at Adenosine receptor A3 is 14 nM; at Adenosine receptor A2a, greater than 10000 nM; on Adenosine receptor A1 it was 40 nM; on Adenosine receptor A2b, greater than 10000 nM.

`CC1(C)c2ccc(C(=O)NCCCCCCNc3ncnc4c3ncn4[C@@H]3O[C@H](CO)[C@@H](O)[C@H]3O)cc2C(C)(C)N1[O]`: the Ki at Adenosine receptor A3 was 89 nM; on Adenosine receptor A2a, greater than 10000 nM; on Adenosine receptor A1, 15 nM; at Adenosine receptor A2b it was greater than 10000 nM.

`CC1(C)NC(C)(C)c2cc(Nc3ncnc4c3ncn4[C@@H]3O[C@H](CO)[C@@H](O)[C@H]3O)ccc21`: the Ki at Adenosine receptor A3 was 280 nM; on Adenosine receptor A2a, greater than 10000 nM; on Adenosine receptor A1, 290 nM; on Adenosine receptor A2b it was greater than 10000 nM.

For `CC1(C)CC(Nc2ncnc3c2ncn3[C@@H]2O[C@H](CO)[C@@H](O)[C@H]2O)CC(C)(C)N1[O]`, the inhibition constant (Ki) at Adenosine receptor A3 was 8560 nM; on Adenosine receptor A2a it was greater than 10000 nM; at Adenosine receptor A1, 50 nM; at Adenosine receptor A2b, greater than 10000 nM.

As to `CC1(C)CC(Nc2ncnc3c2ncn3[C@@H]2O[C@H](CO)[C@@H](O)[C@H]2O)CC(C)(C)N1`, the Ki was 25000 nM on Adenosine receptor A3, greater than 10000 nM on Adenosine receptor A2a, 1580 nM at Adenosine receptor A1 and greater than 10000 nM at Adenosine receptor A2b.

`OC[C@H]1O[C@@H](n2cnc3c(NC4CCCC4)ncnc32)[C@H](O)[C@@H]1O`: the Activity in assay [1] was 86.2%. In addition, the result in assay [2] was Active.

For `CC(C)(C)c1cc(C(=O)NCCc2ccc(Nc3ncnc4c3ncn4[C@@H]3O[C@H](CO)[C@@H](O)[C@H]3O)cc2)cc(C(C)(C)C)c1O`, the Ki at Adenosine receptor A3 is 84 nM; at Adenosine receptor A2a, greater than 10000 nM; at Adenosine receptor A1, 32 nM; on Adenosine receptor A2b, 8580 nM. In addition, in assay [1], the Activity was 73.2%. Moreover, in assay [2], the result was Active.

`CC1(C)c2ccc(Nc3ncnc4c3ncn4[C@@H]3O[C@H](CO)[C@@H](O)[C@H]3O)cc2C(C)(C)N1[O]`: the Ki at Adenosine receptor A3 was 790 nM; at Adenosine receptor A2a, greater than 10000 nM; at Adenosine receptor A1, 100 nM; on Adenosine receptor A2b, greater than 10000 nM.

For `CC1(C)c2ccc(C(=O)NCCc3ccc(Nc4ncnc5c4ncn5[C@@H]4O[C@H](CO)[C@@H](O)[C@H]4O)cc3)cc2C(C)(C)N1[O]`, the Ki is 230 nM on Adenosine receptor A3, greater than 10000 nM on Adenosine receptor A2a, 7 nM at Adenosine receptor A1 and 1450 nM on Adenosine receptor A2b. The Ratio Ki in assay [3] came to 3. Further, the Activity in assay [1] was 54.7%. Moreover, the outcome in assay [2] was Active.
